The subject of one test is RSV-A2-GFP virus. Kind of test: microbe, parasite or virus in culture. It is filed as cell-based, Human Respiratory Syncytial Virus. On the procedure: To set up the assay, ARF vials were thawed in a 37° C. water bath and a control compound was resuspended in assay media DMEM (Dulbecco's Modified Eagle Medium) containing 2% FBS, 100 U/ml Penicillin-Streptomycin.
GFP sequence was derived from pJTI™ R4 Dest CMV N-EmGFP pA Vector (Invitrogen) and was cloned into the intergenic sequence between wild-type RSV-A2 P and M genes using standard recombineering techniques. Recombinant RSV-A2-GFP was propagated in Hep2 cells (human cells contain HeLa marker chromosomes and were derived via HeLa contamination, ATCC CCL-23) with a Multiplicity of Infection (MOI) of 0.1. Virus was harvested 3 days after infection by collecting all culture material and then freeze-thawing the mixture for 5 min. Working virus stocks were generated by thawing frozen viral cultures in 37° C. water bath, which were centrifuged at 218 g for 15 min at 4° C. 1/10 of 10×SPG (Biological Industries 06-3061-01-5A) were added and then mixed. The supernatant was aliquoted, frozen in liquid nitrogen, and then transferred to a −80° C. freezer for storage. Virus titer was determined by automated plaque assay in HEp-2 cells following methods described previously (Wen Z. et al.; 2019).
Calu-1 cells were purchased from ATCC (Cat #HTB-54) and were expanded in growth media (DMEM containing 10% FBS, 100 U/ml Penicillin-Streptomycin). To make ARF, cell culture media was removed and discarded and the cell layer was briefly rinsed with PBS to remove serum. 2.5 mL of TrypLE Express solution were added and cells incubated until dislodged, to which growth media was added and the cells were resuspended by gentle pipetting. Cells were counted for concentration and viability as determined by ViCell. Cells were centrifuged at RT, 300 g for 5 minutes to pellet cells. The supernatant was gently aspirated and the pellet was flicked to loosen cells. Cells were resuspended in an appropriate volume of freezing medium (DMEM containing 10% DMSO, 10% FBS, 100 U/ml Penicillin-Streptomycin) to achieve a concentration of 5×10^6 cells/mL. 1 mL aliquots of the cell suspension were transferred to freezing vials. The vials were put into an upright container in a −80° C. freezer overnight before transferring vials to liquid nitrogen for storage.
Assay ready freezedown (ARF, generation described separately) Calu-1 cells (ATCC HTB-54) were used. Compound plates were prepared by dispensing compounds dissolved in DMSO into the wells of a 384 well Corning® 3985 plate with an ECHO acoustic dispenser and compounds were tested in 10-point serial 3-fold dilution. […] To set up the assay, ARF vial(s) were thawed in a 37° C. water bath and were then resuspended into assay media (DMEM containing 2% FBS, 100 U/ml Penicillin-Streptomycin). Cells were counted using default parameters on ViCell and diluted to 20,000 cells/mL in assay media. RSV-A2-GFP virus was added to cells at 24,000 pfu/ml (MOI=1.2) and mixed by gentle inversion. 10 μL/well of 100% DMSO was dispensed as CellTiter-Glo (CTG) assay Max_E controls wells. The cells were dispensed at 50 μL/well using Bravo with 50 μL filtered tips into compound plates. Plates were covered with MicroClime lids, loaded with 7.5 mL of assay media to minimize evaporation, and were incubated at 37° C. and 5% CO2 for 96 hrs. Following incubation, distinct, GFP-expressing cells were counted using an Acumen imaging system with appropriate settings. A same-well CTG assay was performed by adding 10 μL/well reconstituted CellTiter-Glo reagent (Promega G7573) and plates were read on PerkinElmer Envision according to manufacturer's instructions. Raw data were loaded and analyzed in ActivityBase. Antiviral IC50 and cytotoxicity CC50 values were determined using a 4 parameter logistic fit based on the Levenberg-Marquardt algorithm. Model: 205-4 Parameter Logistic.

The test system of another test is hMPV-GFP virus. The test is described as follows: microbe, parasite or virus in culture. It is filed as cell-based, human metapneumovirus. The method, then:
GFP expressing rgHMPV #3 p3 was generated in Dr. Buchholz's lab (Biacchesi S. et al., J Virol. 2007 June; 81(11): 6057-6067) and propagated in VERO cells (ATCC Cat #CCL-81) with a Multiplicity of Infection (MOI) of 0.1. Virus was harvested 4 days after infection by collecting cultured material and was freeze-thaw cycled in liquid nitrogen twice. Working virus stocks were generated from thawing frozen samples in 37° C. water bath, which were centrifuged at 218 g for 15 min at 4° C. 1/10 of 10×SPG (Biological Industries 06-3061-01-5A) were added and then mixed. The supernatant was aliquoted, frozen in liquid nitrogen, and then transferred to a −80° C. freezer for storage. Virus titer was determined by performing titration test in 96-well plates and calculate approximate virus titer using GFP event/well data.
Compound plates were prepared by dispensing compounds dissolved in DMSO into wells of a 384 well Corning 3985 polystyrene flat clear bottom optical imaging microplate (202.5 nL/well) using an ECHO acoustic dispenser. Each compound was tested in 10-point serial 3-fold dilution (typical final concentrations: 40,300 nM-2 nM). […] Continuous culture of VERO cells was maintained in complete culture media (OptiMEM supplemented with 2 mM GlutaMAX™ and 100 U/ml Penicillin-Streptomycin). To set up the assay, VERO cells were trypsinized with 0.25% Trypsin-EDTA until cells were dislodged, then cells were re-suspended with 1 mL FBS. Cells were spun down at 300 g for 5 minutes and cells were washed twice with culture media and counted using default parameters on ViCell. Cells were then diluted to 100,000 cells/mL (5,000 cells/50 μL) in complete culture media+TrypLE Select (80 μL/mL). hMPV-GFP virus was added to cells at 125,000 pfu/mL (MOI=1.25) and were mixed by gentle inversion. 10 μL/well of 100% DMSO was dispensed to CellTiter-Glo (CTG) assay Max_E controls wells. Cells were dispensed at 50 μL/well using Bravo and 50 μL filtered tips into compound plates. Plates were covered with MicroClime lids and loaded with 7.5 mL of assay media to minimize evaporation. Plates were lightly shaken for 10 minutes at room temperature and then incubated at 37° C. and 5% CO2 for 48 hrs. Following incubation, distinct GFP-expressing cells were counted using an Acumen imaging system with appropriate settings. A same-well CTG assay was performed by adding 10 μL/well reconstituted CellTiter-Glo reagent (Promega G7573) and plates were read on PerkinElmer Envision according to manufacturer's instructions. Raw data were loaded and analyzed in ActivityBase. Antiviral IC50 and cytotoxicity CC50 values were determined using a 4 parameter logistic fit based on the Levenberg-Marquardt algorithm. Model: 205-4 Parameter Logistic. • References: Wen Z, Citron M, Bett A J, Espeseth A S, Vora K A, Zhang L, DiStefano D J. Development and application of a higher throughput RSV plaque assay by immunofluorescent imaging. J Virol Methods. 2019 January; 263:88-95. doi: 10.1016/j.jviromet.2018.10.022. Epub 2018 Oct. 28. PMD: 30381239. • Biacchesi S, Murphy B R, Collins P L, Buchholz U J. Frequent frameshift and point mutations in the SH gene of human metapneumovirus passaged in vitro. J Virol. 2007 June; 81(11):6057-67. doi: 10.1128/JVL.00128-07. Epub 2007 Mar. 21. PMID: 17376897; PMCID: MC 1900297. Assay Data

The mark [1] stands for this setting: human respiratory syncytial virus, Calu-1, 96 h, read-out: RSV EC50, Calu-1 cells infected with RSV-A2-GFP, 96 hrs, GFP-expressing cells counted.
[2] abbreviates: human metapneumovirus, Vero, 48 h, read-out: hMPV EC50, VERO cells infected with hMPV-GFP, 48 hrs, GFP-expressing cells counted.
Setting [3] is: read-out: hMPV EC50, VERO cells infected with hMPV-GFP, 48 hrs, GFP-expressing cells counted.
[4] abbreviates: Calu-1 cells infected with RSV-A2-GFP, 96 hrs, GFP-expressing cells counted, read-out: RSV EC50.
Where [5] appears, read: VERO cells infected with hMPV-GFP, 48 hrs, GFP-expressing cells counted, read-out: hMPV EC50.
Where [6] appears, read: read-out: RSV EC50, Calu-1 cells infected with RSV-A2-GFP, 96 hrs, GFP-expressing cells counted.

Each structure is given as a SMILES string. Read-outs that look alike come from different tables or passages of the source. Bounds are passed on as bounds.

A word on the EC50: it is the midpoint of the concentration-response curve. `Cn1nc(-c2ncccn2)cc1C(=O)N1C[C@H]2[C@H](Oc3cc(C(C)(C)N)cc(-c4ccc(F)cc4F)n3)[C@@]2(C)C1` (single isomer, unassigned; enantiomer 1) [Example 108A]: the values for the half-maximal effective concentration (EC50) in the test on RSV-A2-GFP virus (setting [1]) and in the test on hMPV-GFP virus (setting [2]) were under 10 nM and over 100 nM, respectively.

Regarding `Cc1nn(-c2ncccn2)cc1C(=O)N1C[C@H]2[C@H](Oc3cc(C(C)(C)N)cc(-c4ccc(F)cc4F)n3)[C@@]2(C)C1` (single isomer, unassigned; enantiomer 1) [Example 109A], the EC50 was under 10 nM with RSV-A2-GFP virus (setting [1]) and over 100 nM in the test with hMPV-GFP virus (setting [3]).

Regarding `Cn1nc(-c2ncccn2)cc1C(=O)N1C[C@H]2[C@H](Oc3cc(C(C)(C)N)cc(-c4ccc(C(F)(F)F)cc4)n3)[C@@]2(C)C1` (single isomer, unassigned; enantiomer 1) [Example 110A], the EC50 was under 10 nM with RSV-A2-GFP virus (setting [1]) and 10 to 100 nM in the test on hMPV-GFP virus (setting [3]).

Take `Cc1nn(-c2ncccn2)cc1C(=O)N1C[C@H]2[C@H](Oc3cc(C(C)(C)N)cc(-c4ccc(C(F)(F)F)cc4)n3)[C@@]2(C)C1` (single isomer, unassigned; enantiomer 1) [Example 111A]: the EC50 with RSV-A2-GFP virus (setting [1]) was under 10 nM; with hMPV-GFP virus (setting [3]) it was over 100 nM.

On to `Cc1nn(-c2ncccn2)cc1C(=O)N1C[C@@H]2[C@H](C1)[C@H]2Oc1cc(C2(C)CCCN2)cc(-c2ccc(F)cc2)n1` (single isomer, unassigned; enantiomer 1) [Example 112], for which the half-maximal effective concentration (EC50) with RSV-A2-GFP virus (setting [1]) was under 10 nM; in the test with hMPV-GFP virus (setting [2]), over 100 nM.

On to `Cc1nc(-c2ncccn2)sc1C(=O)N1C[C@@H]2[C@H](C1)[C@H]2Oc1cc(C(C)(N)CO)cc(-c2ccc(F)cc2)n1` (single isomer, unassigned; enantiomer 1) [Example 113A], for which the EC50 was under 10 nM in the test with RSV-A2-GFP virus (setting [1]) and over 100 nM in the test on hMPV-GFP virus (setting [2]).

Consider `CCC(C)(N)c1cc(OC2[C@H]3CN(C(=O)c4cn(-c5ncccn5)nc4C)C[C@@H]23)nc(-c2ccc(F)cc2)c1` (single isomer, unassigned; enantiomer 1) [Example 116A], for which the concentration for a half-maximal effect (EC50) is under 10 nM in the test with RSV-A2-GFP virus (setting [4]) and over 100 nM with hMPV-GFP virus (setting [5]).

As for `CCc1nc(-c2ncccn2)sc1C(=O)N1C[C@@H]2[C@H]1C[C@H]2Oc1cc(C(C)(C)N)cc(-c2ccc(F)cc2)n1` (single isomer, unassigned; enantiomer 2) [Example 3], the 50% effective concentration (EC50) in the test on RSV-A2-GFP virus (setting [1]) was under 10 nM; in the test with hMPV-GFP virus (setting [2]), over 100 nM.

With `Cn1nc(-c2ncccn2)cc1C(=O)N1C[C@@H]2[C@H]1C[C@H]2Oc1cc(C(C)(C)N)cc(-c2ccc(F)cc2)n1` (single isomer, unassigned; enantiomer 2) [Example 4], the EC50 was 10 to 100 nM with RSV-A2-GFP virus (setting [1]) and over 100 nM in the test on hMPV-GFP virus (setting [2]).

Regarding `CCc1nn(-c2ncccn2)cc1C(=O)N1C[C@@H]2[C@H]1C[C@H]2Oc1cc(C(C)(C)N)cc(-c2ccc(F)cc2)n1` (single isomer, unassigned; enantiomer 2) [Example 5], the values for the half-maximal effective concentration (EC50) in the test on RSV-A2-GFP virus (setting [1]) and with hMPV-GFP virus (setting [2]) were under 10 nM and over 100 nM, respectively.

On to `CC(C)(N)c1cc(O[C@@H]2C[C@@H]3[C@H]2CN3C(=O)c2cn(-c3ncccn3)nc2C2CC2)nc(-c2ccc(F)cc2)c1` (single isomer, unassigned; enantiomer 2) [Example 6], for which the concentration for a half-maximal effect (EC50) in the test on RSV-A2-GFP virus (setting [1]) is under 10 nM; with hMPV-GFP virus (setting [2]), over 100 nM.

As for `CC(O)c1nn(-c2ncccn2)cc1C(=O)N1C[C@@H]2C(Oc3cc(C(C)(C)N)cc(-c4ccc(F)c(F)c4)n3)[C@@H]2C1` (single isomer, unassigned; enantiomer 2) [Example 96B], the 50% effective concentration (EC50) in the test on RSV-A2-GFP virus (setting [4]) was under 10 nM; with hMPV-GFP virus (setting [5]), over 100 nM.

On to `Cc1nc(-c2ncccn2)sc1C(=O)N1C[C@H]2[C@H](Oc3cc(C(C)(C)N)cc(-c4ccc(F)cc4)n3)[C@@]2(C)C1` (single isomer, unassigned; enantiomer 2) [Example 103B], for which the concentration for a half-maximal effect (EC50) with RSV-A2-GFP virus (setting [1]) was under 10 nM; in the test with hMPV-GFP virus (setting [2]), 10 to 100 nM.

With `Cn1nc(-c2ncccn2)cc1C(=O)N1C[C@H]2[C@H](Oc3cc(C(C)(C)N)cc(-c4ccc(F)cc4)n3)[C@@]2(C)C1` (single isomer, unassigned; enantiomer 2) [Example 104B], the concentration giving a half-maximal response (EC50) in the test with RSV-A2-GFP virus (setting [6]) is under 10 nM; with hMPV-GFP virus (setting [3]), over 100 nM.

Consider `Cn1nc(-c2ncccn2)cc1C(=O)N1C[C@H]2[C@H](Oc3cc(C(C)(C)N)cc(-c4ccc(F)c(F)c4)n3)[C@@]2(C)C1` (single isomer, unassigned; enantiomer 2) [Example 105B], for which the results for the 50% effective concentration (EC50) in the test on RSV-A2-GFP virus (setting [6]) and in the test on hMPV-GFP virus (setting [3]) were under 10 nM and 10 to 100 nM, respectively.

Take `Cc1nn(-c2ncccn2)cc1C(=O)N1C[C@H]2[C@H](Oc3cc(C(C)(C)N)cc(-c4ccc(F)c(F)c4)n3)[C@@]2(C)C1` (single isomer, unassigned; enantiomer 2) [Example 106B]: the concentration giving a half-maximal response (EC50) with RSV-A2-GFP virus (setting [6]) was under 10 nM; in the test on hMPV-GFP virus (setting [3]) it was 10 to 100 nM.

The values are drawn from US12643882B2, “Inhibitors of human respiratory syncytial virus and metapneumovirus” (priority 2022, dated 2026).
